Data from patent US20200308550A1, “TUMOR ORGANOID MODEL” (IMBA - INSTITUT FÜR MOLEKULARE BIOTECHNOLOGIE GMBH, priority 2017, published 2020).

test system: GBM-1 neoplastic organoids including firefly luciferase; assay: Luciferase assay-based drug testing on neoplastic organoids; assay type: cell-based, human; settings: 1 μM, forty days after drug treatment, vs DMSO
Experimental: FIG. 13. […] Normalized luciferase activity was presented. Statistical analysis of quantifications was performed using one-way ANOVA with Dunnett's test. **, p<0.01.
For drug testing, neoplastic organoids were first grown for 2 months, followed by drug treatment for 40 days. […] After drug treatment, neoplastic organoids were trypsinized for single cell preparation, followed by FACS sorting analysis. Total cell numbers were counted to evaluate the cytotoxicity of the drugs.
In an effort toward adapting this method for large scale screening, we modified the neoplastic cerebral organoid system to include firefly luciferase for measurement of tumor size (FIG. 13a).

relative firefly luciferase activity (tumor size)	SMILES
only non-significant effects	C=CC(=O)Nc1cc2c(Nc3ccc(F)c(Cl)c3)ncnc2cc1OCCCN1CCOCC1 [Canertibib, Canertinib]
only non-significant effects	COc1cc2ncnc(Nc3ccc(F)c(Cl)c3)c2cc1OCCCN1CCOCC1 [Gefitinib]
only non-significant effects	CCOc1cc2ncc(C#N)c(Nc3ccc(F)c(Cl)c3)c2cc1NC(=O)/C=C/CN(C)C [Pelitinib]

SMILES	relative firefly luciferase activity (tumor size)
C#Cc1cccc(Nc2ncnc3cc(OCCOC)c(OCCOC)cc23)c1 [Erlotinib]	significantly reduced firefly luciferase activity
